Measurements as given in US20250025443A1, “COMPOUNDS AND METHODS FOR TREATING CORONA VIRUSES” (CLEAR CREEK BIO, INC., priority 2021, published 2025).
Read-outs that look alike come from different tables or passages of the source.

Target: SARS-CoV-2 Papain-Like Protease (PLpro) (Severe acute respiratory syndrome coronavirus 2 (2019-nCoV) (SARS-CoV-2), UniProt P0DTD1)
Assay: biochemical
[1] = SARS-CoV-2 PLpro enzymatic fluorescence assay, read-out: PLpro IC50
[2] = PLpro enzymatic fluorescence assay, class symbols, read-out: PLpro IC50

Compound | IC50 [1] [nM] | IC50 [2] [nM] | other results
Cc1ccc(OCC2CCN2C)cc1C(=O)NC1(c2cc(-c3ccccc3)cc3ccccc23)CC1 (centres unmarked) [Compound 475, 2-Methyl-5-((1-methylazetidin-2-yl)methoxy)-N-(1-(3-phenylnaphthalen-1-yl)cyclopropyl)benzamide] | < 100 |  | 
Cc1ccc(OC[C@@H]2CCN2C)cc1C(=O)NC1(c2cc(-c3cc(Cl)cs3)cc3ncccc23)CC1 [Compound 632, (S)-N-(1-(7-(4-Chlorothiophen-2-yl)quinolin-5-yl)cyclopropyl)-2-methyl-5-((1-methylazetidin-2-yl)methoxy)benzamide] |  | < 100 | 
Cc1ccc(OCCN(C)C)cc1C(=O)NC1(c2cccc(Cl)c2Cl)CC1 [Compound 335, N-(1-(2,3-Dichlorophenyl)cyclopropyl)-5-(2-(dimethylamino)ethoxy)-2-methylbenzamide] | 100 to 1000 |  | 
Cc1cc2c(CCN)c[nH]c2cc1C(=O)NC1(c2cccc3ccccc23)CC1 [Compound 292, 3-(2-Aminoethyl)-5-methyl-N-(1-(naphthalen-1-yl)cyclopropyl)-1H-indole-6-carboxamide] |  |  | IC50 (PLpro IC50, SARS-CoV-2 PLpro enzymatic fluorescence assay): 100 to 1000 nM
[2H]C([2H])([2H])N1CC[C@H]1COc1ccc(C)c(C(=O)NC2(c3cc(-c4cnc(C)o4)cc4ncccc34)CC2)c1 [Compound 782, (S)-2-Methyl-5-((1-(methyl-d3)azetidin-2-yl)methoxy)-N-(1-(7-(2-methyloxazol-5-yl)quinolin-5-yl)cyclopropyl)benzamide] |  | < 100 | 
COc1cc(C2(NC(=O)c3cc(OCCNC(C)(C)C)ccc3C)CC2)c2cccnc2c1 [Compound 626, 5-(2-(tert-Butylamino)ethoxy)-N-(1-(7-methoxyquinolin-5-yl)cyclopropyl)-2-methylbenzamide] |  | < 100 | 
COc1cc(C2(NC(=O)c3cc(OC[C@@H]4CCCN4C)ccc3C)CC2)c2cccnc2c1 [Compound 528, (S)-N-(1-(7-Methoxyquinolin-5-yl)cyclopropyl)-2-methyl-5-((1-methylpyrrolidin-2-yl)methoxy)benzamide] | < 100 |  | 
5-(2-Hydroxyethoxy)-2-methyl-N-(1-(naphthalen-1-yl)cyclopropyl)benzamide [Compound 393] | 100 to 1000 |  | 
CC#Cc1cc(C2(NC(=O)c3cc(OC[C@@H]4CCN4)ccc3C)CC2)c2cccnc2c1 [Compound 696, (S)-5-(Azetidin-2-ylmethoxy)-2-methyl-N-(1-(7-(prop-1-yn-1-yl)quinolin-5-yl)cyclopropyl)benzamide] |  | < 100 | 
CNCC1Cc2cc(C)c(C(=O)NC3(c4cccc5ccccc45)CC3)cc2N1 (centres unmarked) [Compound 231, 5-Methyl-2-((methylamino)methyl)-N-(1-(naphthalen-1-yl)cyclopropyl)indoline-6-carboxamide] | < 100 |  | 
Cc1ccc(N)cc1C(=O)NC1(c2cccc3ccccc23)CC1 [Compound 147, 5-Amino-2-methyl-N-(1-(naphthalen-1-yl)cyclopropyl)benzamide] | 100 to 1000 |  | 
Cc1ccc(OC[C@@H]2CCN2C)cc1C(=O)NC1(c2cc(-c3nc4ccccc4o3)cc3ncccc23)CC1 [Compound 718, (S)—N-(1-(7-(Benzo[d]oxazol-2-yl)quinolin-5-yl)cyclopropyl)-2-methyl-5-((1-methylazetidin-2-yl)methoxy)benzamide] |  | < 100 | 
COCCNCCOc1ccc(C)c(C(=O)NC2(c3cccc4ccccc34)CC2)c1 [Compound 358, 5-(2-((2-Methoxyethyl)amino)ethoxy)-2-methyl-N-(1-(naphthalen-1-yl)cyclopropyl)benzamide] | < 100 |  | 
Cc1ccc(OC[C@@H]2CCN2C)cc1C(=O)NC1(c2cc(-c3ccc(CN4CCC(F)(F)C4)s3)cc3ncccc23)CC1 [Compound 805, (S)—N-(1-(7-(5-((3,3-Difluoropyrrolidin-1-yl)methyl)thiophen-2-yl)quinolin-5-yl)cyclopropyl)-2-methyl-5-((1-methylazetidin-2-yl)methoxy)benzamide] |  | < 100 | 
Cc1ccc(OCCN)cc1C(=O)NC1(c2cccc3ccccc23)CC1 [Compound 215, 5-(2-Aminoethoxy)-2-methyl-N-(1-(naphthalen-1-yl)cyclopropyl)benzamide] | < 100 |  | 
Cc1ccc(OC[C@@H]2CCN2C)cc1C(=O)NC1(c2cc(-c3ccc4nccn4c3)cc3ncccc23)CC1 [Compound 702, (S)—N-(1-(7-(Imidazo[1,2-a]pyridin-6-yl)quinolin-5-yl)cyclopropyl)-2-methyl-5-((1-methylazetidin-2-yl)methoxy)benzamide] |  | < 100 | 
Cc1ccc(N2CCN(C)CC2)cc1C(=O)NC1(c2cccc3ccccc23)CC1 [Compound 418, 2-Methyl-5-(4-methylpiperazin-1-yl)-N-(1-(naphthalen-1-yl)cyclopropyl)benzamide] | < 100 |  | 
Cc1ccc(OCCN(C)C)cc1C(=O)NC1(c2cccc(OCc3ccccc3)c2)CC1 [Compound 308, N-(1-(3-(Benzyloxy)phenyl)cyclopropyl)-5-(2-(dimethylamino)ethoxy)-2-methylbenzamide] | > 5000 |  | 
Cc1ccc([N+](=O)[O-])cc1C(=O)N[C@H](C)c1cccc2ccccc12 [Compound 104, (R)-2-Methyl-N-(1-(naphthalen-1-yl)ethyl)-5-nitrobenzamide] |  | > 5000 | 

Compound | IC50 [1] [nM] | IC50 [2] [nM] | other results
Cc1cc2cc(C(C)N)[nH]c2cc1C(=O)NC1(c2cccc3ccccc23)CC1 (centres unmarked) [Compound 273, 2-(1-Aminoethyl)-5-methyl-N-(1-(naphthalen-1-yl)cyclopropyl)-1H-indole-6-carboxamide] | < 100 |  | 
Cc1ccc(OC[C@@H]2CCN2C)cc1C(=O)NC1(c2cc(Oc3ccccc3)cc3ncccc23)CC1 [Compound 592, (S)-2-Methyl-5-((1-methylazetidin-2-yl)methoxy)-N-(1-(7-phenoxyquinolin-5-yl)cyclopropyl)benzamide] |  | < 100 | 
Cc1ccc(N2CCNCC2)cc1C(=O)NC1(c2cccc3ccccc23)CC1 [Compound 410, 2-Methyl-N-(1-(naphthalen-1-yl)cyclopropyl)-5-(piperazin-1-yl)benzamide] | < 100 |  | 
Cc1ccc(OCC2CCN2C)cc1C(=O)NC1(c2cccc3ccc(O)cc23)CC1 (centres unmarked) [Compound 477, N-(1-(7-Hydroxynaphthalen-1-yl)cyclopropyl)-2-methyl-5-((1-methylazetidin-2-yl)methoxy)benzamide] | < 100 |  | 
Cc1ccc(OCC(C)N)cc1C(=O)NC1(c2cccc3ncccc23)CC1 (centres unmarked) [Compound 498, 5-(2-Aminopropoxy)-2-methyl-N-(1-(quinolin-5-yl)cyclopropyl)benzamide] |  | < 100 | 
COc1cc(C2(NC(=O)c3cc(CC[C@@H]4CCC4C)ccc3C)CC2)c2ccncc2c1 (some centres unmarked) [Compound 538] | < 100 |  | 
CNCCOc1ccc(C)c(C(=O)NC2(c3cc(OC)cc4ncccc34)CC2)c1 [Compound 526, N-(1-(7-Methoxyquinolin-5-yl)cyclopropyl)-2-methyl-5-(2-(methylamino)ethoxy)benzamide] | < 100 |  | 
Cc1ccc(N)cc1C(=O)NS(=O)(=O)c1cccc2ccccc12 [Compound 242, 5-Amino-2-methyl-N-(naphthalen-1-ylsulfonyl)benzamide] | > 5000 |  | 
Cc1ccc(OCCN(C)C)cc1C(=O)NC1(c2cccc(-c3cccs3)c2)CC1 [Compound 355, 5-(2-(Dimethylamino)ethoxy)-2-methyl-N-(1-(3-(thiophen-2-yl)phenyl)cyclopropyl)benzamide] | 100 to 1000 |  | 
C=Cc1cc(C2(NC(=O)c3cc(OC[C@@H]4CCN4C)c(NS(C)(=O)=O)cc3C)CC2)c2cccnc2c1 [Compound 760, (S)-2-Methyl-5-((1-methylazetidin-2-yl)methoxy)-4-(methylsulfonamido)-N-(1-(7-vinylquinolin-5-yl)cyclopropyl)benzamide] |  | < 100 | 
Cc1ccc(NC2CNC2)cc1C(=O)NCc1cccc(-c2ccc(CN3CCCC3)s2)c1 [Compound 120, 5-(Azetidin-3-ylamino)-2-methyl-N-(3-(5-(pyrrolidin-1-ylmethyl)thiophen-2-yl)benzyl)benzamide] | > 5000 |  | 
Cc1ccc(OCCNCC2CC2)cc1C(=O)NC1(c2cccc3ccccc23)CC1 [Compound 361, 5-(2-((Cyclopropylmethyl)amino)ethoxy)-2-methyl-N-(1-(naphthalen-1-yl)cyclopropyl)benzamide] | < 100 |  | 
Cc1ccc(NC2CNC2)cc1C(=O)NC1(c2cccc(-c3ccc(CN[C@H]4CC[C@@H](O)C4)s3)c2)CC1 [Compound 196, 5-(Azetidin-3-ylamino)-N-(1-(3-(5-((((1S,3R)-3-hydroxycyclopentyl)amino)methyl)thiophen-2-yl)phenyl)cyclopropyl)-2-methylbenzamide] | 100 to 1000 |  | 
Cc1ccc(OCC(C)N)cc1C(=O)NC1(c2cccc3cnccc23)CC1 (centres unmarked) [Compound 446, 5-(2-Aminopropoxy)-N-(1-(isoquinolin-5-yl)cyclopropyl)-2-methylbenzamide] |  | < 100 | 
COc1cc(C2(NC(=O)c3cc(OC[C@@H]4CCCCN4C)ccc3C)CC2)c2cccnc2c1 [Compound 553, (S)-N-(1-(7-Methoxyquinolin-5-yl)cyclopropyl)-2-methyl-5-((1-methylpiperidin-2-yl)methoxy)benzamide] |  | < 100 | 
COc1cc(C2(NC(=O)c3cc(OC[C@H](C)N)ccc3C)CC2)c2ccncc2c1 [Compound 536, (S)-5-(2-Aminopropoxy)-N-(1-(7-methoxyisoquinolin-5-yl)cyclopropyl)-2-methylbenzamide] |  | < 100 | 
Cc1ccc(OC[C@@H]2CCN2C)cc1C(=O)NC1(c2cc(N(C)C)nc3cc(F)ccc23)CC1 [Compound 611, (S)-N-(1-(2-(Dimethylamino)-7-fluoroquinolin-4-yl)cyclopropyl)-2-methyl-5-((1-methylazetidin-2-yl)methoxy)benzamide] | < 100 |  | 
Cc1cc2cc(C(N)=O)[nH]c2cc1C(=O)NC1(c2cccc3ccccc23)CC1 [Compound 205] | 100 to 1000 |  | 
Cc1cccc(C2(NC(=O)c3cc(OCCN(C)C)ccc3C)CC2)c1 [Compound 255, 5-(2-(Dimethylamino)ethoxy)-2-methyl-N-(1-(m-tolyl)cyclopropyl)benzamide] | > 5000 |  | 
